{
  "source": "patent US20060067913A1",
  "about": "“HCV therapy” (priority 2003, published 2006)",
  "key": {"[1]": {"conditions": "children; cited from earlier work"}, "[2]": {"description": "In this Example, Human Ezrin Peptide therapy comprised oral administration of a 2 mg/2 ml aqueous solution of HEP1 to HCV patients who were also infected with HIV. The patients were treated twice a day for 10 days followed by once a day for 20 days in the absence of any other anti-HIV or anti-HCV therapy. Blood samples from patients were analysed before treatment and 30 days after the end of the 30 day treatment period."}},
  "note": "Where a SMILES comes first, the peptide text is derived from it.",
  "data": [
    {"smiles": "CC(C)[C@H](NC(=O)[C@@H](NC(=O)[C@H](CCC(=O)O)NC(=O)[C@H](CCCNC(=N)N)NC(=O)[C@H](CCCNC(=N)N)NC(=O)[C@H](CCCCN)NC(=O)[C@H](CCCCN)NC(=O)[C@H](CCC(=O)O)NC(=O)[C@@H](N)[C@@H](C)O)[C@@H](C)O)C(=O)N[C@@H](CCC(=O)O)C(=O)N[C@@H](CCCNC(=N)N)C(=O)N[C@@H](CCC(=O)O)C(=O)N[C@@H](CCCCN)C(=O)N[C@@H](CCC(=O)O)C(=O)O", "note": "[HEP1] (H-TEKKRRETVEREKE-OH)", "values": [
      {"measurement": "side-effects or adverse reactions", "setting": "[1]", "result": "No side-effects or adverse reactions"},
      {"measurement": "CD4/CD8 index", "setting": "[2]; HIV+HCV infected patients", "result": "improved"},
      {"measurement": "average increase of CD4 cells", "setting": "[2]; HIV+HCV infected patients", "result": 70, "unit": "cells per microlitre"},
      {"measurement": "patients with increased CD4 cells", "setting": "[2]; HIV+HCV infected patients", "result": "18 of 19"},
      {"measurement": "side effects or adverse events", "setting": "[2]; during treatment with HEP1", "result": "No side effects or adverse events were observed"}
    ]}
  ]
}
